We go through 5 substances from patent publication US6902901B2, “Polypeptides useful for diagnosis of Aspergillus fumigatus and a process of preparing the same” (Council of Scientific and Industrial Research, priority 1998, dated 2005).

Assay [1] concerns A. fumigatus specific IgG antibodies in sera. Kind of assay: ELISA of peptide-coated plates with human sera, specific IgG binding. Conditions: diluted 1:100. As to the method:
Sera derived from 25 healthy persons and 30 culture proven allergic bronchopulmonary aspergillosis patients were probed with synthetic peptides of the present invention for A. fumigatus specific antibodies. NUNC ELISA plates were coated with 0-1 ug/ml of peptide in carbonate-bicarbonate buffer, 0.01 M, pH 9.6 for 2 h at 37° C. The unreacted sites were blocked with bovine serum albumin in phosphate buffered saline, 0.01 M, pH 7.4. Diluted sera (1:100) of patients or healthy controls was added to the wells and Incubated for 3 h at 37° C. Washed plates received anti-human IgG-HRP conjugate for 1.5 h at 37° C. washed plates were then assayed with o-phenylene diamine substrate and read at 492 nm.
For orientation: In an ELISA, binding on a coated surface is turned into a signal by an enzyme label.

The test system of assay [2] is A. fumigatus specific IgE antibodies in sera. Kind of assay: ELISA of peptide-coated plates with human sera, specific IgE binding. As to the method:
Sera derived from 25 healthy persons and 30 culture proven allergic bronchopulmonary aspergillosis patients were probed with synthetic peptides of the present invention for A. fumigatus specific antibodies. NUNC ELISA plates were coated with 0-1 ug/ml of peptide in carbonate-bicarbonate buffer, 0.01 M, pH 9.6 for 2 h at 37° C. The unreacted sites were blocked with bovine serum albumin in phosphate buffered saline, 0.01 M, pH 7.4. Diluted sera (1:100) of patients or healthy controls was added to the wells and Incubated for 3 h at 37° C. […]

For assay [3], the system named is mixture of A. fumigatus allergens/antigens and purified 18 kD allergen/antigen. Kind of assay: Intraperitoneal immunisation of mice with peptide, serum IgG ELISA. The format is in vivo, BALB/c mice. The conditions noted are these: Immunised mice; 300 ug peptide i.p. with Freund's incomplete adjuvant; serum 30 days after immunization. As to the method:
Each synthetic peptide (300 ug/150 ul saline) was emulsified with an equal volume of Freund's incomplete adjuvant and used for intraperitoneal immunisation of 3 BALB/c mice. IgG antibodies in the serum collected from these mice 30 days after immunization bound with mixture of A. fumigatus allergens/antigens and purified 18 kD allergen/antigen in ELISA.

Assay [4] has as its system Peripheral blood lymphocytes (PBL). Kind of assay: Cytokine analysis of PBMC supernatants incubated with peptides. The assay is classed as cell-based, human. The conditions noted are these: PBMC supernatant, 6 days culture with peptide. As to the method: Peripheral blood lymphocytes (PBL) from healthy donors and aspergillosis patients were fractionated and 2×10^6 cells/well were cultured in presence or absence of synthetic peptides for 6 days in RPMI 1640 medium with 10% autologous serum. The supernatant medium was collected for cytokine analysis and 0.5 mg/ml solution of MTT was added to each well for 30 min. before harvesting cultures with acidified isopropanol. Absorbance was measured at 590 nm.

Assay [5] has as its system sensitised mast cells of ABPA patients. Kind of assay: Histamine release from heparinised whole blood incubated with peptides. The format is cell-based, human. The conditions noted are these: 30 min at 37° C. As to the method: Whole blood (heparinised) was incubated with the peptides for 30 min at 37° C. in polystyrene plates followed by centrifugation and collection of supernatants. The supernatants were acylated and were assayed for acylated histamine by histamine assay kit (Immunotech International).

As for “LNPKTNKWEDK (listed as Aspergillus fumigatus) [pep 2, 11 aminoacids peptide, aa 10-20 of the 18 kD allergen/antigen]”, the “Absorbance at 490 nm, Specific IgG” value in assay [1] (Normal sera) amounted to 0.09. Further, the “Absorbance at 490 nm, Specific IgG” value in assay [1] (Patient sera (ABPA)) worked out at 0.852. The “Absorbance at 490 nm, Specific IgE” value in assay [2] (Normal sera) stood at 0.039. Further, in assay [2] (Patient sera (ABPA)), the “Absorbance at 490 nm, Specific IgE” value was found to be 0.473. For the same substance, the “Absorbance at 490 nm, specific IgG antibodies in mice” value (“Absorbance at 490 nm … in mice” below) in assay [3] came out at 0.636. In assay [4], the IL-2 was determined as 280 pg/mL, the IL-4 was determined as 48 pg/mL, the IL-6 is 140 pg/mL and the IL-10 came out at 80 pg/mL. For the same substance, in assay [4], the gamma-IFN came out at 320 pg/mL. In assay [5] (Normal whole blood), the Histamine released stood at 82 nM. Further, the Histamine released in assay [5] (Patient (ABPA) whole blood) is given as 402 nM.

Turning to LNPKTNKWEDKRY [pep 6], in assay [1] (Normal sera), the “Absorbance at 490 nm, Specific IgG” value is 0.004. Besides, in assay [1] (Patient sera (ABPA)), the “Absorbance at 490 nm, Specific IgG” value was 0.828. In assay [2] (Normal sera), the “Absorbance at 490 nm, Specific IgE” value is listed as 0.033. Moreover, the “Absorbance at 490 nm, Specific IgE” value in assay [2] (Patient sera (ABPA)) was 0.145. In addition, in assay [3], the “Absorbance at 490 nm … in mice” value turned out to be 0.547. In assay [4], the IL-2 came out at 120 pg/mL, the IL-4 was determined as 62 pg/mL, the IL-6 was 760 pg/mL and the IL-10 is 340 pg/mL. This substance gave a gamma-IFN in assay [4] of 240 pg/mL. Also, the Histamine released in assay [5] (Normal whole blood) turned out to be 62 nM. Further, in assay [5] (Patient (ABPA) whole blood), the Histamine released turned out to be 278 nM.

As to TNKWEDK [pep 5], the “Absorbance at 490 nm, Specific IgG” value in assay [1] (Normal sera) is 0.012. Further, in assay [1] (Patient sera (ABPA)), the “Absorbance at 490 nm, Specific IgG” value turned out to be 0.850. Moreover, the “Absorbance at 490 nm, Specific IgE” value in assay [2] (Normal sera) turned out to be 0.032. Further, in assay [2] (Patient sera (ABPA)), the “Absorbance at 490 nm, Specific IgE” value is reported as 0.208. The “Absorbance at 490 nm … in mice” value in assay [3] came to 0.498. In assay [4], this substance came in with an IL-2 of 260 pg/mL, an IL-4 of 24 pg/mL, an IL-6 of 180 pg/mL and an IL-10 of 36 pg/mL. In addition, the gamma-IFN in assay [4] is 660 pg/mL. Further, in assay [5] (Normal whole blood), the Histamine released amounted to 43 nM. Further, the Histamine released in assay [5] (Patient (ABPA) whole blood) is 356 nM.

Regarding “INQQLNPKTNKWEDK (listed as Aspergillus fumigatus) [pep 4, 15 aminoacids peptide, aa 6-20 of the 18 kD allergen/antigen]”, the “Absorbance at 490 nm, Specific IgG” value in assay [1] (Normal sera) is listed as 0.006. Besides, the “Absorbance at 490 nm, Specific IgG” value in assay [1] (Patient sera (ABPA)) worked out at 0.845. In assay [2] (Normal sera), the “Absorbance at 490 nm, Specific IgE” value worked out at 0.028. For the same substance, the “Absorbance at 490 nm, Specific IgE” value in assay [2] (Patient sera (ABPA)) was 0.235. The “Absorbance at 490 nm … in mice” value in assay [3] came to 0.526. For the same substance, in assay [4], the IL-2 was determined as 400 pg/mL, the IL-4 was found to be 28 pg/mL, the IL-6 came out at 120 pg/mL and the IL-10 worked out at 40 pg/mL. In addition, in assay [4], the gamma-IFN is 520 pg/mL. The Histamine released in assay [5] (Normal whole blood) stood at 58 nM. For the same substance, in assay [5] (Patient (ABPA) whole blood), the Histamine released stood at 392 nM.

As to “INQQLNPK (listed as Aspergillus fumigatus) [pep 3, 8 aminoacids peptide, aa 6-14 (also printed aa 6-13) of the 18 kD allergen/antigen]”, the “Absorbance at 490 nm, Specific IgG” value in assay [1] (Normal sera) is reported as 0.011. The “Absorbance at 490 nm, Specific IgG” value in assay [1] (Patient sera (ABPA)) came to 0.674. For the same substance, in assay [2] (Normal sera), the “Absorbance at 490 nm, Specific IgE” value was 0.042. In assay [2] (Patient sera (ABPA)), the “Absorbance at 490 nm, Specific IgE” value is 0.256. Further, the “Absorbance at 490 nm … in mice” value in assay [3] is 0.434. Besides, in assay [4], the IL-2 was 80 pg/mL, the IL-4 is 92 pg/mL, the IL-6 came out at 620 pg/mL and the IL-10 was 220 pg/mL. Also, in assay [4], the gamma-IFN is 168 pg/mL. In addition, the Histamine released in assay [5] (Normal whole blood) amounted to 65 nM. For the same substance, the Histamine released in assay [5] (Patient (ABPA) whole blood) is 369 nM.
